pIC50: −log10 of the molar value. ≈ marks a conversion by molar mass, not a printed value. Like-named read-outs stand apart in the source and are kept apart here.
Columns and labels:
NCI-H460 = experiment: Growth inhibitory activity, human cancer cell line NCI-H460 (SRB); type: cell-based; conditions: Lung-NSC NCI-H460
Description: (§1) The assay used is described in Monks et al. Briefly, the cell suspensions, diluted according to tho particular cell type and the expected target cell density (5,000-40,000 cells per well based on cell growth characteristics), were added by pipet (100 μl) to 96-well microtiter plates. Inoculates were allowed a preincubation time of 24-28 hours at 37° C. for stabilization. Incubation with the inhibitor compounds lasted for 48 hours in 5% CO2 atmosphere and 100% humidity. Determination of cell growth was done by in situ fixation of cells, followed by staining with a protein-binding dye, sulforhodamine B (SRB), which binds to the basic amino acids of cellular macromolecules. The solubilized stain was measured spectrophotometrically.

tubulin = test system: T1, tubulin; experiment: Tubulin polymerization assay; type: biochemical, bovine; conditions: for pIC50: purified tubulin […], GTP-induced, 350 nm, final steady-state number for compounds other than 1A and 10A, read-out: IC50 for inhibition of tubulin polymerization
T1 construct: Purified tubulin is obtained from bovine brain cells as described in Hamel and Lin
Description: The ability of the various above described compounds to inhibit tubulin polymerization can be determined by in vitro assay. A suitable assay system is that described by Bai et al. A method for purifying tubulin from bovine brain cells is described by Hamel and Lin.
IC50 values for tubulin polymerization were determined according to the procedure described in Bai et al. Purified tubulin is obtained from bovine brain cells as described in Hamel and Lin. Various amounts of inhibitor were preincubated for 15 minutes at 37° C. with purified tubulin. After the incubation period, the reaction was cooled and GTP was added to induce tubulin polymerization. Polymerization was then monitored in a Gilford spectrophotometer at 350 nm. The final reaction mixtures (0.25 ml) contained 1.5 mg/ml tubulin, 0.6 mg/ml microtubule-associated proteins (MAPs), 0.5 mM GTP, 0.5 mM MgCl2, 4% DMSO and 0.1 M 4-morpholineethanesulfonate buffer (MES, pH 6.4). […]

FADU = experiment: Human cancer cell line studies, FADU; type: cell-based; conditions: Pharynx-sqam FADU
Description: as §1

BXPC-3 = experiment: Human cancer cell line studies, BXPC-3; type: cell-based; conditions: Pancreas adn BXPC-3
Description: as §1

SW1736 = experiment: Human cancer cell line studies, SW1736; type: cell-based; conditions: Thyroid ca SW1736
Description: as §1

DU-145 = experiment: Human cancer cell line studies, DU-145; type: cell-based; conditions: Prostate DU-145
Description: as §1

SK-N-SH = experiment: Human cancer cell line studies, SK-N-SH; type: cell-based; conditions: Neuroblast SK-N-SH
Description: as §1

P388 leukemia cells = experiment: Cytotoxic assay with P388 leukemia cells; type: cell-based, mouse
Description: The tubulin polymerization compounds can also be tested for their ability to inhibit tumor cell growth.

[1] = Homo sapiens, SW-1736, read-out: GI50
[2] = Mus musculus, P388, read-out: ED50
[3] = P388 mouse leukemia, dosage required to inhibit 50% of cell growth

Row | Compound | GI50 (NCI-H460; Homo sapiens, read-out: GI50) [µg/mL] | pIC50 (tubulin) | GI50 (FADU; Homo sapiens, read-out: GI50) [µg/mL] | GI50 (BXPC-3; Homo sapiens, read-out: GI50) [µg/mL] | GI50 (SW1736; [1]) [µg/mL] | GI50 (DU-145; Homo sapiens, read-out: GI50) [µg/mL] | GI50 (SK-N-SH; Homo sapiens, read-out: GI50) [µg/mL] | also measured
1 | COc1ccc2c(c1)CCC=C2c1cc(OC)c(OC)c(OC)c1CO [Compound 25D, 1-(hydroxymethyl-3′,4′,5′-trimethoxyphenyl)-6-methoxy-3,4-dihydronaphthalene] | 1.5 (≈ 4.21 µM) | < 4.40 | 0.51 (≈ 1.43 µM) | 0.53 (≈ 1.49 µM) | 2.1 (≈ 5.89 µM) | 2.6 (≈ 7.29 µM) | 0.3 (≈ 0.842 µM) | –
2 | COc1ccc(/C=C\c2cc(OC)c(OC)c(OC)c2)cc1N [Compound 33E, (Z)-1-(3′-amino-4′-methoxyphenyl)-2-(3″,4″,5″-trimethoxyphenyl)ethene] | 0.00068 (≈ 0.00216 µM) | […] | < 0.001 | 0.0013 (≈ 0.00412 µM) | < 0.001 | 0.00096 (≈ 0.00304 µM) | < 0.001 | –
3 | COc1ccc(/C=C\c2cc(OC)c(OC)c(OC)c2)cc1N=[N+]=[N-] [Compound 34E, (Z)-1-(3′azido-4′-methoxyphenyl)-2-(3″,4″,5″-trimethoxyphenyl)ethene] | 0.0056 (≈ 0.0164 µM) | 5.89 | 0.0076 (≈ 0.0223 µM) | 0.005 (≈ 0.0146 µM) | 1.2 (≈ 3.52 µM) | 0.0091 (≈ 0.0267 µM) | 0.0033 (≈ 0.00967 µM) | IC50 (P388 leukemia cells; [2]): 0.0384 µg/mL (≈ 0.112 µM)
4 | COc1ccc(/C=C\c2cc(OC)c(OC)c(OC)c2)cc1N(Cc1ccccc1)Cc1ccccc1 [5-[(Z)-2-(3′,4′,5′-trimethoxyphenyl)ethenyl]-2-methoxy-N,N-bis-(phenylmethyl)aniline, reference compound] | – | – | – | – | – | – | – | ED50 (P388 leukemia cells; [3]): 33.9 µg/mL (≈ 68.4 µM)
5 | COc1ccc(-c2sc3cc(OC)ccc3c2C(=O)c2c(OC)cccc2OC)cc1 [Compound 2A, 3-(2′,6′-dimethoxybenzoyl)-2-(4′-methoxyphenyl)-6-methoxybenzo[b]thiophene] | – | – | – | – | – | – | – | tubulin polymerization inhibition (tubulin): no observable tubulin polymerization inhibition activity; activity against P388 leukemia cells (P388 leukemia cells): failed to show measurable activity against the leukemia cells; ED50 (P388 leukemia cells; [3]): >100 µg/mL; IC50 (P388 leukemia cells; P388 mouse leukemia, dosage required to inhibit 50% of cell growth, read-out: ED50 (the source's name)): > 100 µg/mL
6 | COc1ccc(-c2sc3cc(OC)ccc3c2C(=O)c2cc(OC)cc(OC)c2)cc1 [Compound 3A, 3-(3′,5′-dimethoxybenzoyl)-2-(4′-methoxyphenyl)-6-methoxybenzo[b]thiophene] | – | – | – | – | – | – | – | tubulin polymerization inhibition (tubulin): no observable tubulin polymerization inhibition activity; activity against P388 leukemia cells (P388 leukemia cells): failed to show measurable activity against the leukemia cells; IC50 (P388 leukemia cells; [2]): > 100 µg/mL; ED50 (P388 leukemia cells; [3]): >100 µg/mL
7 | COc1ccc(-c2sc3cc(OC)ccc3c2C(=O)c2cc(OC)c(O)c(OC)c2)cc1 [Compound 19A, 3-(4′-hydroxy-3′,5′-dimethoxybenzoyl)-2-(4′-methoxyphenyl)-6-methoxybenzo[b]thiophene] | – | – | – | – | – | – | – | tubulin polymerization inhibition (tubulin): no observable tubulin polymerization inhibition activity; activity against P388 leukemia cells (P388 leukemia cells): failed to show measurable activity against the leukemia cells; IC50 (P388 leukemia cells; [2]): > 100 µg/mL; ED50 (P388 leukemia cells; [3]): >100 µg/mL
8 | COc1ccc(-c2cc3c(OC)ccc(C(=O)c4cc(F)c(F)c(F)c4)c3s2)cc1 [Compound 12A, 7-(3′,4′,5′-trifluorobenzoyl)-2-(4′-methoxyphenyl)-4-methoxybenzo[b]thiophene] | > 10 | < 4.40 | 6.7 (≈ 15.6 µM) | > 10 | > 10 | > 10 | > 10 | –
9 | COc1ccc(-c2sc3cc(OC)ccc3c2C(=O)c2cc(F)c(F)c(F)c2)cc1 [Compound 14A, 3-(3′,4′,5′-trifluorobenzoyl)-2-(4′-methoxyphenyl)-6-methoxybenzo[b]thiophene] | > 10 | < 4.40 | 13.6 (≈ 31.7 µM) | > 10 | > 10 | > 10 | > 10 | –
10 | COc1ccc(-c2sc3cc(OC)ccc3c2C(=O)c2c(F)c(F)c(F)c(F)c2F)cc1 [Compound 15A, 3-(2′,3′,4′,5′,6′-pentafluorobenzoyl)-2-(4′-methoxyphenyl)-6-methoxybenzo[b]thiophene] | 7.9 (≈ 17 µM) | < 4.40 | 1.3 (≈ 2.8 µM) | 5.9 (≈ 12.7 µM) | 4 (≈ 8.61 µM) | 5 (≈ 10.8 µM) | 1.4 (≈ 3.01 µM) | –
11 | CCOc1c(OC)cc(C(=O)c2c(-c3ccc(OC)cc3)sc3cc(OC)ccc23)cc1OC [Compound 10A, 3-(4′-ethoxy-3′,5′-dimethoxybenzoyl)-2-(4′-methoxyphenyl)-6-methoxybenzo[b]thiophene] | 0.32 (≈ 0.669 µM) | – | 0.31 (≈ 0.648 µM) | 0.22 (≈ 0.46 µM) | 0.31 (≈ 0.648 µM) | 0.35 (≈ 0.731 µM) | 0.17 (≈ 0.355 µM) | tubulin polymerization inhibition (tubulin): clear inhibition of tubulin polymerization of rate, but not of plateau; polymerization curves at several concentrations (tubulin; 4, 10, and 40 μM): nearly identical
12 | COc1cc(/C=C\c2cc(OC)c(OC)c(OC)c2)ccc1N=[N+]=[N-] [Compound 30E, (Z)-1-(4′azido-3′-methoxyphenyl)-2-(3″,4″,5″-trimethoxyphenyl)ethene] | 0.35 (≈ 1.03 µM) | 5.82 | 0.42 (≈ 1.23 µM) | 0.3 (≈ 0.879 µM) | 0.45 (≈ 1.32 µM) | 0.7 (≈ 2.05 µM) | 0.24 (≈ 0.703 µM) | –
13 | COc1ccc2c(c1)CCC=C2C(=O)c1cc(OC)c(OC)c(OC)c1 [Compound 26D, 1-(3′,4′,5′-trimethoxybenzoyl)-6-methoxy-3,4-dihydronaphthalene] | 0.0033 (≈ 0.00931 µM) | 5.77 | 0.0013 (≈ 0.00367 µM) | 0.003 (≈ 0.00846 µM) | 0.0048 (≈ 0.0135 µM) | 0.0038 (≈ 0.0107 µM) | < 0.001 | tubulin polymerization curve at 4 μM (tubulin; 4 μM): total flat
14 | CCOc1ccc(-c2sc3cc(OCC)ccc3c2C(=O)c2cc(OC)c(OC)c(OC)c2)cc1 [Compound 18A, 3-(3′,4′,5′-trimethoxybenzoyl)-2-(4′-ethoxyphenyl)-6-ethoxybenzo[b]thiophene] | 1.4 (≈ 2.84 µM) | < 4.40 | 0.6 (≈ 1.22 µM) | 1.6 (≈ 3.25 µM) | 2.3 (≈ 4.67 µM) | 3.6 (≈ 7.31 µM) | 0.33 (≈ 0.67 µM) | –
15 | COc1ccc(-c2sc3cc(OC)ccc3c2C(=O)/C=C/c2cc(OC)c(OC)c(OC)c2)cc1 [Compound 17A, E-3-[3′-(3′,4′,5′-trimethoxyphenyl)cinnamoyl]-2-(4′-methoxyphenyl)-6-methoxybenzo[b]thiophene] | 3.9 (≈ 7.95 µM) | < 4.40 | 1.8 (≈ 3.67 µM) | 2.3 (≈ 4.69 µM) | 5.2 (≈ 10.6 µM) | 7.5 (≈ 15.3 µM) | 1.3 (≈ 2.65 µM) | –
16 | COc1ccc(-c2sc3ccccc3c2C(=O)c2cc(OC)c(OC)c(OC)c2)cc1 [Compound 16A, 3-(3′,4′,5′-trimethoxybenzoyl)-2-(4′-methoxyphenyl)-benzo[b]thiophene] | 2.7 (≈ 6.21 µM) | < 4.40 | 0.63 (≈ 1.45 µM) | 1.7 (≈ 3.91 µM) | 4.6 (≈ 10.6 µM) | 4.8 (≈ 11 µM) | 0.83 (≈ 1.91 µM) | –
17 | COc1cc(/C=C\c2cc(OC)c(OC)c(OC)c2)ccc1[N+](=O)[O-] [Compound 27E, (Z)-1-(3′-methoxy-4′-nitrophenyl)-2-(3″,4″,5″-trimethoxyphenyl) ethene] | 2.3 (≈ 6.66 µM) | < 4.40 | 1.1 (≈ 3.19 µM) | 1.9 (≈ 5.5 µM) | 3.3 (≈ 9.56 µM) | 2.6 (≈ 7.53 µM) | 2.1 (≈ 6.08 µM) | –
18 | COc1ccc(-c2sc3cc(OC)ccc3c2C(=O)c2ccc(N(C)C)cc2)cc1 [Compound 11A, 3-(4′-N,N-dimethylaminobenzoyl)-2-(4′-methoxyphenyl)-6-methoxybenzo[b]thiophene] | > 10 | < 4.40 | > 10 | > 10 | > 10 | > 10 | > 10 | –
19 | COc1ccc(/C=C\c2cc(OC)c(OC)c(OC)c2)cc1[N+](=O)[O-] [Compound 31E, (Z)-1-(4″-methoxy-3″-nitrophenyl)-2-(3′,4′,5′-trimethoxyphenyl)ethene] | – | – | – | – | – | – | – | GI50 (NCI-H460): 0.043 µg/mL (≈ 0.125 µM); GI50 (FADU): 2.6 µg/mL (≈ 7.53 µM); GI50 (BXPC-3): 0.037 µg/mL (≈ 0.107 µM); ED50 (P388 leukemia cells; [3]): 4.0 µg/mL (≈ 11.6 µM); GI50 (SW1736): 0.056 µg/mL (≈ 0.162 µM); GI50 (DU-145): 0.046 µg/mL (≈ 0.133 µM); GI50 (SK-N-SH): >10 µg/mL
20 | COc1ccc(-c2cc3c(OC)ccc(C(=O)c4cc(OC)c(OC)c(OC)c4)c3s2)cc1 [Compound 13A, 7-(3′,4′,5′-trimethoxybenzoyl)-2-(4′-methoxyphenyl)-4-methoxybenzo[b]thiophene] | > 10 | < 4.40 | 7.8 (≈ 16.8 µM) | > 10 | > 10 | > 10 | > 10 | –

Reference: patent publication US20010034454A1, “Description anti-mitotic agents which inhibit tubulin polymerization” (BYLOR UNIVERSITY AND ARIZONA DESEASE CONTROL RESEARCH …, priority 1998, published 2001)
